In the NIST ThermoML archive (doi:10.1016/j.jct.2016.02.009):
Where “and” joins values, the source holds several entries; their conditions need not be identical. Equal entries are not always repeated. ± gives the expanded uncertainty stated by the source.

Assay: molar heat capacity at constant pressure
Details: 101.33 kPa, Small (less than 1 g) adiabatic calorimetry

CCCCCCCCCCCCCCn1cc[n+](C)c1.O=S(=O)([N-]S(=O)(=O)C(F)(F)F)C(F)(F)F
Details | molar heat capacity at constant pressure
180 K, Crystal 2 | 473.1 ± 2.4 J/K/mol
180.86 K, Crystal 2 | 474.8 ± 2.4 J/K/mol
181.71 K, Crystal 2 | 476.2 ± 2.4 J/K/mol
183.59 K, Crystal 2 | 479.9 ± 2.4 J/K/mol
184.16 K, Crystal 2 | 480.9 ± 2.4 J/K/mol
186.32 K, Crystal 2 | 485.4 ± 2.5 J/K/mol
186.61 K, Crystal 2 | 485.8 ± 2.5 J/K/mol
189.04 K, Crystal 2 | 490.7 ± 2.5 J/K/mol
189.07 K, Crystal 2 | 490.4 ± 2.5 J/K/mol
190 K, Crystal 2 | 492.5 ± 2.5 J/K/mol
191.51 K, Crystal 2 | 495.2 ± 2.5 J/K/mol
191.77 K, Crystal 2 | 496.1 ± 2.5 J/K/mol
193.95 K, Crystal 2 | 500 ± 2.5 J/K/mol
194.49 K, Crystal 2 | 501.3 ± 2.5 J/K/mol
196.39 K, Crystal 2 | 504.9 ± 2.6 J/K/mol
197.2 K, Crystal 2 | 507 ± 2.6 J/K/mol
198.82 K, Crystal 2 | 509.9 ± 2.6 J/K/mol
199.91 K, Crystal 2 | 512.5 ± 2.6 J/K/mol
200 K, Crystal 2 | 512.7 ± 2.6 J/K/mol
201.26 K, Crystal 2 | 515.7 ± 2.6 J/K/mol
202.62 K, Crystal 2 | 518.2 ± 2.6 J/K/mol
203.7 K, Crystal 2 | 520.6 ± 2.6 J/K/mol
205.33 K, Crystal 2 | 523.7 ± 2.7 J/K/mol
206.13 K, Crystal 2 | 525.4 ± 2.7 J/K/mol
208.03 K, Crystal 2 | 529.6 ± 2.7 J/K/mol
208.56 K, Crystal 2 | 530.7 ± 2.7 J/K/mol
210 K, Crystal 2 | 533.6 ± 2.7 J/K/mol
210.73 K, Crystal 2 | 535.2 ± 2.7 J/K/mol
210.99 K, Crystal 2 | 535.9 ± 2.7 J/K/mol
213.42 K, Crystal 2 | 541.2 ± 2.7 J/K/mol and 540.9 ± 2.7 J/K/mol
215.85 K, Crystal 2 | 546.3 ± 2.8 J/K/mol
216.12 K, Crystal 2 | 547 ± 2.8 J/K/mol
218.27 K, Crystal 2 | 551.8 ± 2.8 J/K/mol
218.8 K, Crystal 2 | 552.9 ± 2.8 J/K/mol
220 K, Crystal 2 | 556 ± 2.8 J/K/mol
220.69 K, Crystal 2 | 557.4 ± 2.8 J/K/mol
221.49 K, Crystal 2 | 559.3 ± 2.8 J/K/mol
223.1 K, Crystal 2 | 562.9 ± 2.8 J/K/mol
224.17 K, Crystal 2 | 565.7 ± 2.9 J/K/mol
225.52 K, Crystal 2 | 568.8 ± 2.9 J/K/mol
226.84 K, Crystal 2 | 572.3 ± 2.9 J/K/mol
227.93 K, Crystal 2 | 575.1 ± 2.9 J/K/mol
229.5 K, Crystal 2 | 579.5 ± 2.9 J/K/mol
230 K, Crystal 2 | 580.3 ± 2.9 J/K/mol
230.33 K, Crystal 2 | 581.3 ± 2.9 J/K/mol
232.15 K, Crystal 2 | 586.6 ± 3 J/K/mol
232.74 K, Crystal 2 | 587.7 ± 3 J/K/mol
234.8 K, Crystal 2 | 593.8 ± 3 J/K/mol
235.14 K, Crystal 2 | 593.7 ± 3 J/K/mol
237.44 K, Crystal 2 | 600.9 ± 3 J/K/mol
237.53 K, Crystal 2 | 600.1 ± 3 J/K/mol
239.92 K, Crystal 2 | 607.2 ± 3.1 J/K/mol
240 K, Crystal 2 | 607.6 ± 3 J/K/mol
240.07 K, Crystal 2 | 608 ± 3.1 J/K/mol
242.33 K, Crystal 2 | 613.8 ± 3.1 J/K/mol
242.71 K, Crystal 2 | 616.1 ± 3.1 J/K/mol
244.72 K, Crystal 2 | 621.4 ± 3.1 J/K/mol
245.33 K, Crystal 2 | 624.4 ± 3.1 J/K/mol
247.1 K, Crystal 2 | 629.1 ± 3.2 J/K/mol
247.95 K, Crystal 2 | 632.9 ± 3.2 J/K/mol
249.48 K, Crystal 2 | 637 ± 3.2 J/K/mol
250 K, Crystal 2 | 639.3 ± 3.3 J/K/mol
250.55 K, Crystal 2 | 642.1 ± 3.2 J/K/mol
251.33 K, Crystal 2 | 642.4 ± 3.2 J/K/mol
252.65 K, Crystal 2 | 648 ± 3.3 J/K/mol
253.15 K, Crystal 2 | 651.7 ± 3.3 J/K/mol
253.97 K, Crystal 2 | 653.1 ± 3.3 J/K/mol
255.29 K, Crystal 2 | 657.1 ± 3.3 J/K/mol
255.74 K, Crystal 2 | 660.9 ± 3.3 J/K/mol
256.6 K, Crystal 2 | 662.4 ± 3.3 J/K/mol
257.91 K, Crystal 2 | 667.6 ± 3.4 J/K/mol
258.31 K, Crystal 2 | 671.7 ± 3.4 J/K/mol
259.22 K, Crystal 2 | 673.8 ± 3.4 J/K/mol
260 K, Crystal 2 | 677.5 ± 3.4 J/K/mol
260.52 K, Crystal 2 | 679.4 ± 3.4 J/K/mol
260.86 K, Crystal 2 | 683.4 ± 3.4 J/K/mol
261.81 K, Crystal 2 | 685.8 ± 3.4 J/K/mol
263.1 K, Crystal 2 | 692.1 ± 3.5 J/K/mol
263.41 K, Crystal 2 | 696 ± 3.5 J/K/mol
264.39 K, Crystal 2 | 699.3 ± 3.5 J/K/mol
265.67 K, Crystal 2 | 706.4 ± 3.5 J/K/mol
265.94 K, Crystal 2 | 709.4 ± 3.6 J/K/mol
266.97 K, Crystal 2 | 713.8 ± 3.6 J/K/mol
268.24 K, Crystal 2 | 721.6 ± 3.6 J/K/mol
268.46 K, Crystal 2 | 725 ± 3.6 J/K/mol
269.5 K, Crystal 2 | 730 ± 3.7 J/K/mol
270 K, Crystal 2 | 734.5 ± 3.7 J/K/mol
270.76 K, Crystal 2 | 739.3 ± 3.7 J/K/mol
270.95 K, Crystal 2 | 741.9 ± 3.7 J/K/mol
272.01 K, Crystal 2 | 748.9 ± 3.8 J/K/mol
273.25 K, Crystal 2 | 759 ± 3.8 J/K/mol
273.42 K, Crystal 2 | 761.2 ± 3.8 J/K/mol
274.48 K, Crystal 2 | 769.6 ± 3.9 J/K/mol
275.71 K, Crystal 2 | 781.6 ± 3.9 J/K/mol
275.87 K, Crystal 2 | 783.5 ± 3.9 J/K/mol
276.93 K, Crystal 2 | 793.6 ± 4 J/K/mol
278.14 K, Crystal 2 | 807.6 ± 4 J/K/mol
278.29 K, Crystal 2 | 809.7 ± 4.1 J/K/mol
279.35 K, Crystal 2 | 822 ± 4.1 J/K/mol
280 K, Crystal 2 | 830.5 ± 4.1 J/K/mol
280.54 K, Crystal 2 | 837.6 ± 4.2 J/K/mol
280.67 K, Crystal 2 | 840.7 ± 4.2 J/K/mol
281.72 K, Crystal 2 | 855 ± 4.3 J/K/mol
282.9 K, Crystal 2 | 874.3 ± 4.4 J/K/mol
283.02 K, Crystal 2 | 878.3 ± 4.4 J/K/mol
284.05 K, Crystal 2 | 895.5 ± 4.5 J/K/mol
285.2 K, Crystal 2 | 918.1 ± 4.6 J/K/mol
285.31 K, Crystal 2 | 923.3 ± 4.6 J/K/mol
286.34 K, Crystal 2 | 943.8 ± 4.7 J/K/mol
287.46 K, Crystal 2 | 972.2 ± 4.9 J/K/mol
287.56 K, Crystal 2 | 977.1 ± 4.9 J/K/mol
288.56 K, Crystal 2 | 1003 ± 5 J/K/mol
289.65 K, Crystal 2 | 1034 ± 5 J/K/mol
289.75 K, Crystal 2 | 1039 ± 5 J/K/mol
290 K, Crystal 2 | 1046 ± 5 J/K/mol
290.72 K, Crystal 2 | 1067 ± 5 J/K/mol
291.76 K, Crystal 2 | 1097 ± 6 J/K/mol
291.87 K, Crystal 2 | 1102 ± 6 J/K/mol
292.8 K, Crystal 2 | 1118 ± 6 J/K/mol
293.83 K, Crystal 2 | 1139 ± 6 J/K/mol
293.96 K, Crystal 2 | 1145 ± 6 J/K/mol
294.85 K, Crystal 2 | 1153 ± 6 J/K/mol
295.5 K, Crystal 1 | 1155 ± 6 J/K/mol
295.5 K, Crystal 2 | 1155 ± 6 J/K/mol
295.86 K, Crystal 1 | 1154 ± 6 J/K/mol
296 K, Crystal 1 | 1156 ± 6 J/K/mol
296.87 K, Crystal 1 | 1144 ± 6 J/K/mol
297.93 K, Crystal 1 | 998.8 ± 5.7 J/K/mol
298.13 K, Crystal 1 | 971.7 ± 5.6 J/K/mol
298.15 K, Crystal 1 | 971.6 ± 5 J/K/mol
299.06 K, Crystal 1 | 853.3 ± 4.4 J/K/mol
300 K, Crystal 1 | 851.8 ± 4.4 J/K/mol
300.22 K, Crystal 1 | 854.4 ± 4.3 J/K/mol
300.42 K, Crystal 1 | 852.5 ± 4.3 J/K/mol
301.39 K, Crystal 1 | 866.6 ± 4.3 J/K/mol
302.54 K, Crystal 1 | 889.6 ± 4.5 J/K/mol
302.77 K, Crystal 1 | 884.7 ± 4.5 J/K/mol
303.68 K, Crystal 1 | 937.6 ± 5.1 J/K/mol
304.77 K, Crystal 1 | 1081 ± 7 J/K/mol
304.97 K, Crystal 1 | 1130 ± 9 J/K/mol
305.73 K, Crystal 1 | 1438 ± 11 J/K/mol
308.77 K, Crystal 1 | 898.6 ± 4.5 J/K/mol
308.77 K, Liquid | 896.2 ± 4.5 J/K/mol
310 K, Liquid | 897.4 ± 4.5 J/K/mol
320 K, Liquid | 907.2 ± 4.5 J/K/mol
330 K, Liquid | 917 ± 4.6 J/K/mol
340 K, Liquid | 926.7 ± 4.6 J/K/mol
350 K, Liquid | 936.5 ± 4.6 J/K/mol
360 K, Liquid | 946.2 ± 4.7 J/K/mol
370 K, Liquid | 956 ± 4.7 J/K/mol
